This note sets out measurements from PubChem BioAssay (NCI).

Some test systems named below: SK-MEL-28 melanoma; HOP-62 NSCLC; HCT-15 colon; IGROV1 ovarian; SR leukemia; SW-620 colon; MDA-MB-231 breast; UACC-257 melanoma; U251 CNS; HOP-92 NSCLC.
Holding throughout (assay): NCI tumour cell line growth inhibition, 48 h

SMILES strings stand for the structures.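 Method: 48-hour compound exposure of cells in 96-well plates, five concentrations, linear interpolation of endpoints. The concentration for 50% growth inhibition is given as GI50. TGI denotes the concentration required for complete inhibition of growth.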

On to `Cc1nc2c(n1C)C(=O)c1ccccc1C2=O`, for which the GI50 in the test with SK-MEL-28 melanoma was above 100 µM; with HOP-62 NSCLC, above 100 µM; in the test on HCT-15 colon it was 53.6 µM; in the test on IGROV1 ovarian it was 31.3 µM; with SR leukemia, 48.9 µM; with SW-620 colon, 52 µM. Also, the GI50 in the test on MDA-MB-231 breast was above 100 µM; in the test with UACC-257 melanoma, 29.4 µM; in the test on U251 CNS, 63.9 µM; with HOP-92 NSCLC, above 100 µM. The TGI with SK-MEL-28 melanoma, with HOP-62 NSCLC, in the test on HCT-15 colon, with IGROV1 ovarian, in the test with SR leukemia and with SW-620 colon was above 100 µM in each case. The TGI in the test with MDA-MB-231 breast, in the test on UACC-257 melanoma, in the test with U251 CNS and with HOP-92 NSCLC was above 100 µM in each case.
Regarding `O=P1(S)OC[C@H]2O[C@@H]3[C@H](F)[C@@H]2OP(O)(=S)OC[C@H]2O[C@H]([C@H](F)[C@@H]2O1)n1cnc2c(ncnc21)NC/C=C/CNc1ncnc2c1ncn23` (some centres undefined), the GI50 is above 100 µM in the test on SK-MEL-28 melanoma; above 100 µM with HOP-62 NSCLC; above 100 µM in the test with HCT-15 colon; above 100 µM in the test on IGROV1 ovarian; 0.239 µM with SR leukemia; above 100 µM in the test on SW-620 colon. For the same compound, the GI50 in the test with MDA-MB-231 breast is above 100 µM; in the test on UACC-257 melanoma, 0.316 µM; in the test with U251 CNS, above 100 µM. The TGI in the test with SK-MEL-28 melanoma, in the test with HOP-62 NSCLC, with HCT-15 colon, with IGROV1 ovarian, in the test with SR leukemia and in the test with SW-620 colon was above 100 µM in each case. The TGI in the test with MDA-MB-231 breast, in the test on UACC-257 melanoma, in the test with U251 CNS and in the test with HOP-92 NSCLC was above 100 µM in each case.
Consider `COc1cc2c(cc1O)CC1c3c(cc(O)c(OC)c3-2)CCN1C` (centres undefined), for which the TGI in the test on SK-MEL-28 melanoma, in the test with HOP-62 NSCLC, in the test on HCT-15 colon, in the test on IGROV1 ovarian, in the test on SR leukemia and in the test on SW-620 colon was above 100 µM in each case. Further, the TGI in the test with MDA-MB-231 breast, with UACC-257 melanoma, with U251 CNS and in the test with HOP-92 NSCLC was above 100 µM throughout.
For `Cc1ccc(N=Nc2c(O)ccc3ccccc23)cc1`, the TGI in the test with SK-MEL-28 melanoma, with HOP-62 NSCLC, in the test on HCT-15 colon, in the test with IGROV1 ovarian, in the test with SR leukemia and with SW-620 colon was above 100 µM each time. The TGI in the test on MDA-MB-231 breast, in the test on UACC-257 melanoma, in the test on U251 CNS and in the test on HOP-92 NSCLC was above 100 µM in each case.
`Cc1c(-c2ccnc(N)n2)c2c(n1Cc1ccccc1)C(=O)c1ccccc1C2=O`: the GI50 was 17.3 µM with SK-MEL-28 melanoma; 13.9 µM with HOP-62 NSCLC; 4.8 µM with HCT-15 colon; 4.84 µM in the test with IGROV1 ovarian; 1.84 µM in the test on SR leukemia; 6.82 µM in the test on SW-620 colon. The GI50 in the test on MDA-MB-231 breast is 1.73 µM; in the test with UACC-257 melanoma, 23.2 µM; in the test on U251 CNS it was 3.91 µM; in the test on HOP-92 NSCLC, above 100 µM. Further, the TGI was above 100 µM in the test on SK-MEL-28 melanoma; 43.6 µM in the test on HOP-62 NSCLC; above 100 µM with HCT-15 colon; 54.7 µM with IGROV1 ovarian; 4.52 µM with SR leukemia; above 100 µM with SW-620 colon. Moreover, the TGI in the test with MDA-MB-231 breast was 30.2 µM; in the test on UACC-257 melanoma, above 100 µM; in the test on U251 CNS, 36.2 µM; in the test on HOP-92 NSCLC, above 100 µM.
Turning to `COc1ccc(-c2nc(-c3nc4ccc(F)cc4[nH]3)c3ccccn23)cc1`, the GI50 with SK-MEL-28 melanoma is 22.8 µM; with HOP-62 NSCLC it was 7.41 µM; with HCT-15 colon, 33.6 µM; in the test with IGROV1 ovarian, 6.63 µM; with SR leukemia, 6.63 µM; in the test with SW-620 colon, 22.4 µM. For the same compound, the GI50 in the test with MDA-MB-231 breast is 4.34 µM; in the test with UACC-257 melanoma, 9.15 µM; in the test with U251 CNS, 13.6 µM; with HOP-92 NSCLC, 3.67 µM. Further, the TGI is above 100 µM in the test with SK-MEL-28 melanoma; 32.3 µM in the test with HOP-62 NSCLC; above 100 µM with HCT-15 colon; 47.2 µM in the test with IGROV1 ovarian; above 100 µM in the test on SR leukemia; above 100 µM with SW-620 colon. For the same compound, the TGI in the test with MDA-MB-231 breast is 30.4 µM; with UACC-257 melanoma it was 57.2 µM; with U251 CNS, 51.3 µM; in the test on HOP-92 NSCLC, 43.8 µM.
For the compound `CC(C)Cc1ccc(C(C)CC2=CCC(CN(C)C)C2=O)cc1` (centres undefined), the TGI in the test on SK-MEL-28 melanoma is 21.9 µM; in the test on HOP-62 NSCLC, 36.4 µM; in the test with HCT-15 colon it was 7.91 µM; with IGROV1 ovarian, 24 µM; in the test with SR leukemia it was 3.96 µM; in the test on SW-620 colon, 4.48 µM. Further, the TGI in the test with MDA-MB-231 breast came out at 22.5 µM; in the test on UACC-257 melanoma it was 26.9 µM; with U251 CNS, 13.6 µM; in the test with HOP-92 NSCLC, 8.41 µM.
With `O=C(Oc1ccc(CO[N+](=O)[O-])cc1)c1ccccc1`, the GI50 with SK-MEL-28 melanoma is 0.171 µM; in the test with HOP-62 NSCLC it was 0.161 µM; in the test on HCT-15 colon, 0.172 µM; in the test on IGROV1 ovarian, 0.203 µM; with SR leukemia, 0.115 µM; with SW-620 colon it was 0.103 µM. Moreover, the GI50 in the test with MDA-MB-231 breast is 0.144 µM; in the test with UACC-257 melanoma, 0.207 µM; with U251 CNS, 0.145 µM; with HOP-92 NSCLC it was 0.151 µM. Also, the TGI in the test on SK-MEL-28 melanoma amounted to 0.332 µM; in the test with HOP-62 NSCLC it was 0.316 µM; in the test on HCT-15 colon, 0.358 µM; with IGROV1 ovarian, 0.411 µM; in the test on SR leukemia it was 0.542 µM; in the test with SW-620 colon it was 0.251 µM. In addition, the TGI in the test with MDA-MB-231 breast was 0.306 µM; with UACC-257 melanoma, 0.532 µM; with U251 CNS it was 0.276 µM; in the test on HOP-92 NSCLC it was 0.313 µM.
